Test results reported in US20260191849A1, “PHARMACEUTICAL COMPOSITION FOR TREATMENT OF CANCER” (WIGEN BIOMEDICINE TECHNOLOGY (SHANGHAI) CO., LTD., priority 2022, published 2026).
Like-named read-outs stand apart in the source and are kept apart here. Blank lines part the entries; values can stand above or below the compound they belong to.

Columns and labels:
Format in all cases: cell-based
[1] = tested on: HT29 cells; test: Combined use of compound 257 or AMG650 with PLK1 inhibitor on HT29 cell viability, 168 h (Biological Example 7); details: for Maximum inhibition rate / Minimum inhibition rate / IC50: HT29 cells; for IC50: Homo sapiens, HT-29, 168 h; for inhibitory effect on HT-29 cells, combined use with the PLK1 inhibitor compared with monotherapy: Volasertib, in words
Description: (§1) HT29 cells were seeded on a 384-well plate at 3000 cells/well. After overnight adherence culture, DMSO or compound 257 or AMG650 serially diluted in a 1:5 ratio from 400 nM and a PLK1 inhibitor with a specified concentration were added. The cell viability was assessed 168 h after dosing by measuring the intracellular ATP content. The inhibition percentages of viable cells by the compounds were calculated by comparing with the DMSO group, and the IC50 values were also calculated.

[2] = tested on: HCT116 cells; test: Combined use of compound 257 or AMG650 with PLK1 inhibitor on HCT116 cell viability, 168 h (Biological Example 8); details: for synergistic effect on HCT116 cell viability, combined use with the PLK1 inhibitor: Volasertib
Description: as §1, with “HCT116” for “HT29”, “10 μM” for “400 nM”

[3] = tested on: HT29 cells; test: Combined use of compound 257, AMG650 or Compound A with PLK1 inhibitor on HT29 cell viability, 168 h (Biological Example 19); details: for inhibitory effect on HT-29 cells, combined use with the PLK1 inhibitor compared with monotherapy: CYC140 or TAK-960, in words; for IC50: Homo sapiens, HT-29, 168 h, HT29 cells, read-out: IC50
Description: HT29 cells were seeded on a 384-well plate at 3000 cells/well.

[4] = tested on: HT29 cells; test: Combined use of compound 257 with Aurora B inhibitor on HT29 cell viability, 72 h (Biological Example 11); details: for IC50: Homo sapiens, HT-29, 72 h, HT29 cells
Description: as §1, with “257” for “257 or AMG650”, “5 μM” for “400 nM”, “an Aurora B” for “a PLK1”, “72” for “168”

[5] = tested on: HT29 cells; test: Combined use of compound 257 or AMG650 with PLK1 inhibitor (Volasertib) on HT29 cell viability, 168 h (Biological Example 22); details: for inhibitory effect on HT-29 cells, combined use with the PLK1 inhibitor compared with monotherapy: Volasertib, in words; for IC50: Homo sapiens, HT-29, 168 h
Description: (§2) HT29 cells were seeded on a 384-well plate at 3000 cells/well. After overnight adherence culture, DMSO or compound 257 or AMG650 serially diluted in a 1:5 ratio from 400 nM and a PLK1 inhibitor with a specified concentration were added. The cell viability was assessed 168 h after dosing by measuring the intracellular ATP content. […] Furthermore, interactions between the drugs were also analyzed using the BLISS independence model, and the results are shown in FIG. 15 and FIG. 16.

[6] = tested on: SK-OV-3 cells; test: Combined use of compound 257 or AMG650 with PLK1 inhibitor on SK-OV-3 cell viability, 168 h (Biological Example 21); details: for inhibitory effect on SK-OV-3 cells, combined use with the PLK1 inhibitor compared with monotherapy: Volasertib, in words; for IC50: Homo sapiens, SK-OV-3, 168 h
Description: as §2, with “SK—OV-3” for “HT29”, “11” for “15”, “12.” for “16.”

[7] = tested on: HCT116 cells; test: Combined use of compound 257, AMG650 or Compound A with PLK1 inhibitor on HCT116 cell viability, 168 h (Biological Example 20); details: for synergistic effect on HCT116 cell viability, combined use with the PLK1 inhibitor: CYC140 or TAK-960, in words; for anti-proliferative activity against HCT116 cells, monotherapy: in words
Description: as §1, with “HCT116” for “HT29”, “257, AMG650,” for “257”, “Compound A” for “AMG650”

[8] = tested on: HCT116 cells; test: Combined use of compound 257 with PLK1 inhibitor (CYC140, TAK-960) on HCT116 cell viability, 168 h (Biological Example 10)
Description: as §1, with “HCT116” for “HT29”, “257” for “257 or AMG650”

[9] = tested on: HCT116 cells; test: In vitro anti-proliferative activity against HCT116 cells (Biological Example 2); details: in words, from Table 4
Description: as §1, with “HCT116” for “HT29”, “the compounds” for “compound 257 or AMG650”, “5 μM” for “400 nM and a PLK1 inhibitor with a specified concentration”, “72” for “168”

[10] = HCT116 cells, Volasertib 3.12 nM
[11] = HCT116 cells, Volasertib 6.25 nM
[12] = Homo sapiens, HCT-116, HCT116 cells, Volasertib 0 nM
[13] = HT29 cells, 168 h, Volasertib 0.0001 nM, read-out: IC50
[14] = HT29 cells, 168 h, Volasertib 3.13 nM, read-out: IC50
[15] = HT29 cells, 168 h, Volasertib 12.5 nM, read-out: IC50
[16] = HT29 cells, 168 h, Volasertib 25 nM, read-out: IC50
[17] = SK-OV-3 cells, 168 h, Volasertib 0.0001 nM, read-out: IC50
[18] = SK-OV-3 cells, 168 h, Volasertib 6.25 nM, read-out: IC50
[19] = SK-OV-3 cells, 168 h, Volasertib 12.5 nM, read-out: IC50
[20] = SK-OV-3 cells, 168 h, Volasertib 25 nM, read-out: IC50
[21] = SK-OV-3 cells, 168 h, Volasertib 50 nM, read-out: IC50
[22] = HCT116 cells, CYC140 (Plogosertib) 1.6 nM
[23] = HCT116 cells, CYC140 (Plogosertib) 8 nM
[24] = HCT116 cells, CYC140 (Plogosertib) 40 nM
[25] = Homo sapiens, HCT-116, HCT116 cells, CYC140 (Plogosertib) 0 nM

IC50 ([1]; Volasertib 0 nM): 14 nM | IC50 ([1]; Volasertib 3.12 nM): 7 nM | IC50 ([1]; Volasertib 6.25 nM): 2.8 nM | IC50 [2, 10]: > 10000 nM | IC50 [2, 11]: > 10000 nM | IC50 [2, 12]: > 10000 nM | IC50 ([3]; CYC140 (Plogosertib) 0.0001 nM): 10.6 nM | IC50 ([3]; CYC140 (Plogosertib) 1.6 nM): 8.3 nM | IC50 ([3]; CYC140 (Plogosertib) 8 nM): 6.9 nM | IC50 ([3]; CYC140 (Plogosertib) 40 nM): 0.9 nM | IC50 ([3]; TAK-960 0.0001 nM): 10.1 nM | IC50 ([3]; TAK-960 1.6 nM): 8.5 nM | IC50 ([3]; TAK-960 8 nM): 1.7 nM | IC50 ([3]; TAK-960 40 nM): 1.7 nM | IC50 ([4]; Barasertib 0 nM): 13.9 nM | IC50 ([4]; Barasertib 20 nM): 7.3 nM | IC50 ([4]; Barasertib 100 nM): 4.2 nM | IC50 ([4]; Barasertib 500 nM): 3.3 nM | IC50 ([4]; SP-96 0 nM): 14.5 nM | IC50 ([4]; SP-96 20 nM): 16.1 nM | IC50 ([4]; SP-96 100 nM): 14.5 nM | IC50 ([4]; SP-96 500 nM): 5.8 nM | IC50 [5, 13]: 10.9 nM | IC50 [5, 14]: 7.9 nM | IC50 ([5]; HT29 cells, 168 h, Volasertib 6.25 nM, read-out: IC50): 5.9 nM | IC50 [5, 15]: 2.5 nM | IC50 [5, 16]: 0.4 nM | IC50 [6, 17]: 15.4 nM | IC50 ([6]; SK-OV-3 cells, 168 h, Volasertib 3.13 nM, read-out: IC50): 12.8 nM | IC50 [6, 18]: 12.2 nM | IC50 [6, 19]: 8.7 nM | IC50 [6, 20]: 5.9 nM | IC50 [6, 21]: 2 nM | IC50 [7, 22]: > 400 nM | IC50 [7, 23]: > 400 nM | IC50 [7, 24]: > 400 nM | IC50 ([7]; HCT116 cells, TAK-960 0 nM): > 400 nM | IC50 ([7]; HCT116 cells, TAK-960 1.6 nM): > 400 nM | IC50 ([7]; HCT116 cells, TAK-960 8 nM): > 400 nM | IC50 ([7]; HCT116 cells, TAK-960 40 nM): > 400 nM | IC50 [7, 25]: > 400 nM | IC50 [8, 22]: > 400 nM | IC50 [8, 23]: > 400 nM | IC50 ([8]; HCT116 cells, TAK-960 0 nM): > 400 nM | IC50 ([8]; HCT116 cells, TAK-960 8 nM): > 400 nM | IC50 ([8]; HCT116 cells, TAK-960 40 nM): > 400 nM | IC50 [8, 25]: > 400 nM
Structure (SMILES): COc1ccc(NC(=O)c2ccc(NS(=O)(=O)CCO)cc2N2CCC3(CC2)CC3)nc1N1CCC(F)(F)CC1 [Compound 257]
Maximum inhibition rate ([1]; Volasertib 0 nM): 85.3% | Minimum inhibition rate ([1]; Volasertib 0 nM): 3.2% | Maximum inhibition rate ([1]; Volasertib 3.12 nM): 94.6% | Minimum inhibition rate ([1]; Volasertib 3.12 nM): 1.8% | Maximum inhibition rate ([1]; Volasertib 6.25 nM): 94.4% | Minimum inhibition rate ([1]; Volasertib 6.25 nM): 0.5% | inhibitory effect on HT-29 cells, combined use with the PLK1 inhibitor compared with monotherapy [1]: stronger inhibitory effect | synergistic effect on HCT116 cell viability, combined use with the PLK1 inhibitor ([2]; in words): no significant synergistic effect | inhibitory effect on HT-29 cells, combined use with the PLK1 inhibitor compared with monotherapy [3]: stronger inhibitory effect | inhibitory effect on HT-29 cells, combined use with the Aurora B inhibitor compared with monotherapy ([4]; in words): stronger inhibitory effect | inhibitory effect on HT-29 cells, combined use with the PLK1 inhibitor compared with monotherapy ([5]; 168 h): stronger inhibitory effect | inhibitory effect on SK-OV-3 cells, combined use with the PLK1 inhibitor compared with monotherapy ([6]; 168 h): stronger inhibitory effect | synergistic effect on HCT116 cell viability, combined use with the PLK1 inhibitor [7]: no significant synergistic effect | anti-proliferative activity against HCT116 cells, monotherapy [7]: did not exhibit anti-proliferative activity | synergistic effect on HCT116 cell viability, combined use with the PLK1 inhibitor ([8]; CYC140 or TAK-960, in words): no significant synergistic effect | anti-proliferative activity against HCT116 cells, monotherapy ([8]; in words): did not exhibit anti-proliferative activity

Structure (SMILES): Cc1cc(NC(=O)c2ccc(NS(=O)(=O)CCO)cc2N2CCC3(CC2)CC3)nc(N2CCC(F)(F)CC2)n1 [AMG650]
Maximum inhibition rate ([1]; Volasertib 0 nM): 96.5% | Minimum inhibition rate ([1]; Volasertib 0 nM): −1.4% | Maximum inhibition rate ([1]; Volasertib 3.12 nM): 95.8% | Minimum inhibition rate ([1]; Volasertib 3.12 nM): 3.3% | Maximum inhibition rate ([1]; Volasertib 6.25 nM): 97.0% | Minimum inhibition rate ([1]; Volasertib 6.25 nM): −0.4% | IC50 ([1]; Volasertib 0 nM): 84.4 nM | IC50 ([1]; Volasertib 3.12 nM): 26.6 nM | IC50 ([1]; Volasertib 6.25 nM): 16.4 nM | inhibitory effect on HT-29 cells, combined use with the PLK1 inhibitor compared with monotherapy [1]: stronger inhibitory effect | IC50 [2, 10]: > 10000 nM | IC50 [2, 11]: > 10000 nM | IC50 [2, 12]: > 10000 nM | synergistic effect on HCT116 cell viability, combined use with the PLK1 inhibitor ([2]; in words): no significant synergistic effect | anti-proliferative activity against HCT116 cells, monotherapy ([2]; in words): did not exhibit anti-proliferative activity | inhibitory effect on HT-29 cells, combined use with the PLK1 inhibitor compared with monotherapy [3]: stronger inhibitory effect | IC50 ([3]; CYC140 (Plogosertib) 0.0001 nM): 91.8 nM | IC50 ([3]; CYC140 (Plogosertib) 1.6 nM): 74.4 nM | IC50 ([3]; CYC140 (Plogosertib) 8 nM): 50.6 nM | IC50 ([3]; CYC140 (Plogosertib) 40 nM): 11.1 nM | IC50 ([3]; TAK-960 0.0001 nM): 88.9 nM | IC50 ([3]; TAK-960 1.6 nM): 58.6 nM | IC50 ([3]; TAK-960 8 nM): 16.5 nM | IC50 ([3]; TAK-960 40 nM): 16.1 nM | inhibitory effect on HT-29 cells, combined use with the PLK1 inhibitor compared with monotherapy ([5]; 168 h): stronger inhibitory effect | IC50 [5]: 30.2 nM | IC50 [5, 13]: 79.9 nM | IC50 [5, 14]: 43 nM | IC50 [5, 15]: 14.2 nM | IC50 [5, 16]: 5.9 nM | inhibitory effect on SK-OV-3 cells, combined use with the PLK1 inhibitor compared with monotherapy ([6]; 168 h): stronger inhibitory effect | IC50 [6]: 66 nM | IC50 [6, 17]: 72.2 nM | IC50 [6, 18]: 51.7 nM | IC50 [6, 19]: 34.5 nM | IC50 [6, 20]: 27.1 nM | IC50 [6, 21]: 11.2 nM | synergistic effect on HCT116 cell viability, combined use with the PLK1 inhibitor [7]: no significant synergistic effect | IC50 [7, 22]: > 400 nM | IC50 [7, 23]: > 400 nM | IC50 [7, 24]: > 400 nM | IC50 ([7]; HCT116 cells, TAK-960 0 nM): > 400 nM | IC50 ([7]; HCT116 cells, TAK-960 1.6 nM): > 400 nM | IC50 ([7]; HCT116 cells, TAK-960 8 nM): > 400 nM | IC50 ([7]; HCT116 cells, TAK-960 40 nM): > 400 nM | IC50 [7, 25]: > 400 nM | anti-proliferative activity against HCT116 cells, monotherapy [7]: did not exhibit anti-proliferative activity | anti-proliferative activity against HCT116 cells [9]: neither the compounds of the present disclosure nor AMG65 exhibited anti-proliferative activity
